Measurements reported in US9592231B2, “Therapy for complications of diabetes” (AbbVie Deutschland GmbH & Co. KG, priority 2007, dated 2017).
Like-named read-outs stand apart in the source and are kept apart here.

Key:
ETA [1] = biological target: T1, ETA (Homo sapiens, UniProt P25101); assay: ETA affinity reported by Riechers et al (1996); type: binding; details: calculated from the Riechers et al (1996) data
T1 sequence (P25101 21-427): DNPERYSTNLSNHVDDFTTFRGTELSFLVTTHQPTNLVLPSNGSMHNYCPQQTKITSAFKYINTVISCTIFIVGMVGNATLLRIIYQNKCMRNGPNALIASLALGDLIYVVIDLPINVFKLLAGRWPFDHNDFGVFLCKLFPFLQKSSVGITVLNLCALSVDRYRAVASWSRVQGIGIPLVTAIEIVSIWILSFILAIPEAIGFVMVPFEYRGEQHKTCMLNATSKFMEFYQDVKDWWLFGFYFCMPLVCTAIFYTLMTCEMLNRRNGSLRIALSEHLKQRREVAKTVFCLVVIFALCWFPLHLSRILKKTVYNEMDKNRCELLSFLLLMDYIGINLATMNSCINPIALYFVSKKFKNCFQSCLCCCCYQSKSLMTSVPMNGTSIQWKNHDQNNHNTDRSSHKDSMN

hyperglycemic rats = details: type 2 diabetes model; cited from earlier work
[2] = system: rat model of insulin resistance; details: rats, 5 mg/kg/day, cited from earlier work
ETA [3] = biological target: T1, ETA; details: Lip (2001); cited from earlier work
moderate hypertension = details: patients, 10 to 100 mg/day, by comparison with placebo; cited from earlier work
obese mice = details: 50 mg/kg/day; cited from earlier work
[4] = system: rats with streptozotocin-induced diabetes; details: 100 mg/kg/day; cited from earlier work
ETA [5] = biological target: T1, ETA; assay: 125I-endothelin-1 receptor binding cold ligand competition, steady-state, human myocardial membranes; set-up: human myocardial membranes prepared from failing and non-failing left ventricles; from tissue; host or cells: human left-ventricular myocardium (failing and non-failing), membrane preparation; details: mean of 8 assays
[6] = system: streptozotocin-induced diabetes in rats; details: 100 mg/kg/day; cited from earlier work
resistant hypertension = details: Myogen news release Aug. 18, 2005; cited from earlier work

With `COc1cc(OC)nc(OC(C(=O)O)C(OC)(c2ccccc2)c2ccccc2)n1` (racemic) [racemate, 2-(4,6-dimethoxypyrimidin-2-yloxy)-3-methoxy-3,3-diphenylpropionic acid] the “selectivity Ki(ETB)/Ki(ETA)” value (ETA [1]) was “about 62”.

In the case of `COC(c1ccccc1)(c1ccccc1)[C@H](Oc1nc(C)cc(C)n1)C(=O)O` [BSF 208075], the plasma glucose levels (hyperglycemic rats) is listed as “reduced”.

For `CCCCN(CCCC)C(=O)CN1C[C@H](c2ccc3c(c2)OCO3)[C@@H](C(=O)O)[C@@H]1c1ccc(OC)cc1` [atrasentan], the ΔAUC for glucose ([2]; meal tolerance test) is listed as “significantly reduce”, the “ΔAUC for glucose-insulin index” value ([2]; meal tolerance test) is listed as “significantly reduce” and the ΔAUC for insulin ([2]; meal tolerance test) is listed as “significantly reduce”. For the same molecule, the “3-hour fasting glucose level” value [2] was “not” and the “3-hour fasting insulin level” value [2] was “significantly reduce”.

In the case of `COc1cc(OC)nc(O[C@H](C(=O)O)C(OC)(c2ccccc2)c2ccccc2)n1` [darusentan, (+)-(S)-2-[(4,6-dimethoxy-2-pyrimidinyl)oxy]-3-methoxy-3,3-diphenylpropionic acid], the “selectivity Ki(ETB)/Ki(ETA)” value (ETA [3]) is given as “about 160”, the DBP (moderate hypertension) is given as “significantly reduce” and the SBP (moderate hypertension) is given as “significantly reduce”. For the same molecule, the “increase in body weight” value (obese mice) was “completely prevented”, the “glomerular matrix protein deposition” value [4] was “normalized” and the serum glucose concentrations [4] was “neither compound was found to influence”. For the same molecule, the “Ki(ETB)/Ki(ETA)” value (ETA [5]) was 1181±148, the plasma glucose levels [6] was “unaffected” and the “renal effects of streptozotocin-induced diabetes, including increased glomerular diameter and deposition of eosinophilic material within the glomeruli” value [6] was “partially or fully reversed”. The “results of clinical trial DAR-201” value (resistant hypertension) was “positive results”.
